Measurements: PMC8550792, “Evolution of kinase polypharmacology across HSP90 drug discovery” (Cell Chemical Biology, 2021)

Experiments:
Assay in all cases: biochemical
Type in all cases: biochemical
382 unique human kinases [1] = target: T1, 382 unique human kinases (Homo sapiens, UniProt O14757); conditions: CHK1, 10 uM; for remaining activity at 10 µM: read-out: % Enzyme Activity (relative to DMSO controls)
T1 construct: purchased Reaction Biology (HotSpot contract assay)
T1 sequence (O14757 1-476): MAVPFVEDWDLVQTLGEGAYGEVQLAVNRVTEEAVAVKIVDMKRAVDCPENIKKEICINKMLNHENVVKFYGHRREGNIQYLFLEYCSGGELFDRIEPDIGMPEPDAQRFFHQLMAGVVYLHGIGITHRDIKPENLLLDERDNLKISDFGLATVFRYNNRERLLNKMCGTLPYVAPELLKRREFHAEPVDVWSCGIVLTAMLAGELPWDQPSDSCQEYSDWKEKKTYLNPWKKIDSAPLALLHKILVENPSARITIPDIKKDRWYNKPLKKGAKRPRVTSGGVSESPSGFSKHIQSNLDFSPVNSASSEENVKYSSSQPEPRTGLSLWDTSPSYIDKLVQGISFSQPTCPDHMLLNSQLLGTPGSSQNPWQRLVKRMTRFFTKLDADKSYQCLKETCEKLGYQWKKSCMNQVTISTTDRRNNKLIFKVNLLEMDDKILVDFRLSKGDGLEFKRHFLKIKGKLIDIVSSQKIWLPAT

382 unique human kinases [2] = target: T2, 382 unique human kinases (Homo sapiens, UniProt Q76MJ5); conditions: ERN2/IRE2, 10 uM; for remaining activity at 10 µM: read-out: % Enzyme Activity (relative to DMSO controls)
T2 construct: purchased Reaction Biology (HotSpot contract assay)

382 unique human kinases [3] = target: T3, 382 unique human kinases (Homo sapiens, UniProt P28482); conditions: ERK2/MAPK1, 10 uM; for remaining activity at 10 µM: read-out: % Enzyme Activity (relative to DMSO controls)
T3 construct: purchased Reaction Biology (HotSpot contract assay)

382 unique human kinases [4] = target: T4, 382 unique human kinases (Homo sapiens, UniProt P16234, T674I); conditions: PDGFRa (T674I), [ATP] 20 µM, compound 10 uM; for remaining activity at 10 µM: read-out: % Enzyme Activity (relative to DMSO controls)
T4 construct: purchased Reaction Biology (HotSpot contract assay)

382 unique human kinases [5] = target: T5, 382 unique human kinases (Homo sapiens, UniProt Q5S007, R1441C); conditions: LRRK2 (R1441C), [ATP] 50 µM, compound 10 uM; for remaining activity at 10 µM: read-out: % Enzyme Activity (relative to DMSO controls)
T5 construct: purchased Reaction Biology (HotSpot contract assay)

382 unique human kinases [6] = target: T6, 382 unique human kinases (Homo sapiens, UniProt P45983); conditions: JNK1, 10 uM; for remaining activity at 10 µM: read-out: % Enzyme Activity (relative to DMSO controls)
T6 construct: purchased Reaction Biology (HotSpot contract assay)

382 unique human kinases [7] = target: T7, 382 unique human kinases (Homo sapiens, UniProt Q06418); conditions: TYRO3/SKY, 10 uM; for remaining activity at 10 µM: read-out: % Enzyme Activity (relative to DMSO controls)
T7 construct: purchased Reaction Biology (HotSpot contract assay)
T7 sequence (Q06418 41-890): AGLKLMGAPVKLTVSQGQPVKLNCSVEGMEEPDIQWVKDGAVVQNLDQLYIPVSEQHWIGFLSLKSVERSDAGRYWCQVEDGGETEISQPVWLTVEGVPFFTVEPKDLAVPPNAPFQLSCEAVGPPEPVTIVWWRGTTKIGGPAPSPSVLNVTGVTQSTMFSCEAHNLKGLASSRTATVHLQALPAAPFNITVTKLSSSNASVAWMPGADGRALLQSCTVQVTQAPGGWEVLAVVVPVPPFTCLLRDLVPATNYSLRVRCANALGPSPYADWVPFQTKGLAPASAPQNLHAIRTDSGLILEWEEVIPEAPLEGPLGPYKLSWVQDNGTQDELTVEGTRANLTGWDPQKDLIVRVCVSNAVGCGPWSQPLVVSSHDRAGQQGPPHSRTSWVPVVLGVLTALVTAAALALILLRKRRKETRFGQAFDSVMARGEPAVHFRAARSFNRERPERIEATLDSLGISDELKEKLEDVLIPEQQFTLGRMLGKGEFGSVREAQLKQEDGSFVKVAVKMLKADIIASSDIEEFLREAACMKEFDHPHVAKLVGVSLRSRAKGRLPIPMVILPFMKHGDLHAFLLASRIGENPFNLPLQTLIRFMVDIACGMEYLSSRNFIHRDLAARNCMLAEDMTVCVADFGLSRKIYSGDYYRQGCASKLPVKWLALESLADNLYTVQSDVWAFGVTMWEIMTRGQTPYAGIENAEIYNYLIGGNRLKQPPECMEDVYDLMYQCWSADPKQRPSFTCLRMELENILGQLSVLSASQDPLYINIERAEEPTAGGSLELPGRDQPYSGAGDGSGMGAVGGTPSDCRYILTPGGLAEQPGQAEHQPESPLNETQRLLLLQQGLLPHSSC

382 unique human kinases [8] = target: T8, 382 unique human kinases (Homo sapiens, UniProt O15111); conditions: IKKa/CHUK, 10 uM; for remaining activity at 10 µM: read-out: % Enzyme Activity (relative to DMSO controls)
T8 construct: purchased Reaction Biology (HotSpot contract assay)
T8 sequence (O15111 1-745): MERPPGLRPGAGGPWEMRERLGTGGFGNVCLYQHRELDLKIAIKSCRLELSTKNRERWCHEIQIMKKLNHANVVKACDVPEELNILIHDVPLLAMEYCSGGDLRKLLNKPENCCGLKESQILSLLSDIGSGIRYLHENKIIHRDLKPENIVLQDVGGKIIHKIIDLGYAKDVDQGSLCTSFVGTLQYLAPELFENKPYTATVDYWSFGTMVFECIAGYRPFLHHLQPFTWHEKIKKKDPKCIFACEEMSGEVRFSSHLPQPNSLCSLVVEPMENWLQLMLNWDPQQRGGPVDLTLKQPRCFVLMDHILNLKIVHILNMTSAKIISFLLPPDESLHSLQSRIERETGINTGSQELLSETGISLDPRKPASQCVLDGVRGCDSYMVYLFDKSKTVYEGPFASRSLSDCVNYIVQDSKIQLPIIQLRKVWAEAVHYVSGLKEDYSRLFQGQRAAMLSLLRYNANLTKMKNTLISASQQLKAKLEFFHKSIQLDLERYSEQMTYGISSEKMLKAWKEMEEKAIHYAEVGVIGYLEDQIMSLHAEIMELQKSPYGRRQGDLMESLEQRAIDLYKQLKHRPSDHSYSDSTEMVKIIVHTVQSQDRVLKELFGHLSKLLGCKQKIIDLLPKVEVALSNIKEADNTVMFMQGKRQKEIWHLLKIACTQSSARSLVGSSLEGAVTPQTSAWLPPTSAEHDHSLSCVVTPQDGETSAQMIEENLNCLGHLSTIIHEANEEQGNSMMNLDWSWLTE

T6 sequence (P45983 whole entry): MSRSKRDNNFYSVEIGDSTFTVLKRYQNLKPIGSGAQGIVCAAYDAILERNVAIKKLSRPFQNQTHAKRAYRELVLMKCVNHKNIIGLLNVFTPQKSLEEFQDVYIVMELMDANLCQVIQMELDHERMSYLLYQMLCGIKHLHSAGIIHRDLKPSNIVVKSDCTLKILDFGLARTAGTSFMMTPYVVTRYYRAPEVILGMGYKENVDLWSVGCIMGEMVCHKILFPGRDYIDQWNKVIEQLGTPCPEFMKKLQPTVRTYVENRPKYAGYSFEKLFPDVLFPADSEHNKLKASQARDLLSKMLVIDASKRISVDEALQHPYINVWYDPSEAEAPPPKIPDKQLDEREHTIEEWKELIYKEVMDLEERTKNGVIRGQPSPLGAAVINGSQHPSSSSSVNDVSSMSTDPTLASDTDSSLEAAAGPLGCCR
T2 sequence (Q76MJ5 35-926): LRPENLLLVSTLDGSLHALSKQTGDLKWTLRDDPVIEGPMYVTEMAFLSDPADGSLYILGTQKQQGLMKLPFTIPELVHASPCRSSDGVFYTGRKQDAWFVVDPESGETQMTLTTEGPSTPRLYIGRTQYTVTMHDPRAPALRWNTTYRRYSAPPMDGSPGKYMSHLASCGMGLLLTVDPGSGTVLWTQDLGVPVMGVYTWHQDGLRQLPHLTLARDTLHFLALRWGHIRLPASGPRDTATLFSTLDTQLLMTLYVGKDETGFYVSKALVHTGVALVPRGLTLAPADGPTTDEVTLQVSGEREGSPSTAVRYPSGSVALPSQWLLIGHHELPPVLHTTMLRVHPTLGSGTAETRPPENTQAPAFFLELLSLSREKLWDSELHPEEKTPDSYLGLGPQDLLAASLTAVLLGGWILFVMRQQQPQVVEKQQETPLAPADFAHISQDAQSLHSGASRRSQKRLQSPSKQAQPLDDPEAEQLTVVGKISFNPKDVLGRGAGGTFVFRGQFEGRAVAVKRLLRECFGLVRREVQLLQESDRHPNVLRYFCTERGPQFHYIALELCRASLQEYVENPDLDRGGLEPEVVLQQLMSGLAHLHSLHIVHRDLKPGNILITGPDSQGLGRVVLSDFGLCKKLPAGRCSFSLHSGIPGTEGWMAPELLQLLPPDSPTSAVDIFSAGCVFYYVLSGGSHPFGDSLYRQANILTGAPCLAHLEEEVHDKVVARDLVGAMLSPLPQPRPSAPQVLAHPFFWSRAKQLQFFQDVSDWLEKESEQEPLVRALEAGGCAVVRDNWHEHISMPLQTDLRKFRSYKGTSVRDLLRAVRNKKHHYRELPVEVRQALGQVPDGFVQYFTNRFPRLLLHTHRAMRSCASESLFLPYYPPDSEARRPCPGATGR
T5 sequence (Q5S007 whole entry R1441C): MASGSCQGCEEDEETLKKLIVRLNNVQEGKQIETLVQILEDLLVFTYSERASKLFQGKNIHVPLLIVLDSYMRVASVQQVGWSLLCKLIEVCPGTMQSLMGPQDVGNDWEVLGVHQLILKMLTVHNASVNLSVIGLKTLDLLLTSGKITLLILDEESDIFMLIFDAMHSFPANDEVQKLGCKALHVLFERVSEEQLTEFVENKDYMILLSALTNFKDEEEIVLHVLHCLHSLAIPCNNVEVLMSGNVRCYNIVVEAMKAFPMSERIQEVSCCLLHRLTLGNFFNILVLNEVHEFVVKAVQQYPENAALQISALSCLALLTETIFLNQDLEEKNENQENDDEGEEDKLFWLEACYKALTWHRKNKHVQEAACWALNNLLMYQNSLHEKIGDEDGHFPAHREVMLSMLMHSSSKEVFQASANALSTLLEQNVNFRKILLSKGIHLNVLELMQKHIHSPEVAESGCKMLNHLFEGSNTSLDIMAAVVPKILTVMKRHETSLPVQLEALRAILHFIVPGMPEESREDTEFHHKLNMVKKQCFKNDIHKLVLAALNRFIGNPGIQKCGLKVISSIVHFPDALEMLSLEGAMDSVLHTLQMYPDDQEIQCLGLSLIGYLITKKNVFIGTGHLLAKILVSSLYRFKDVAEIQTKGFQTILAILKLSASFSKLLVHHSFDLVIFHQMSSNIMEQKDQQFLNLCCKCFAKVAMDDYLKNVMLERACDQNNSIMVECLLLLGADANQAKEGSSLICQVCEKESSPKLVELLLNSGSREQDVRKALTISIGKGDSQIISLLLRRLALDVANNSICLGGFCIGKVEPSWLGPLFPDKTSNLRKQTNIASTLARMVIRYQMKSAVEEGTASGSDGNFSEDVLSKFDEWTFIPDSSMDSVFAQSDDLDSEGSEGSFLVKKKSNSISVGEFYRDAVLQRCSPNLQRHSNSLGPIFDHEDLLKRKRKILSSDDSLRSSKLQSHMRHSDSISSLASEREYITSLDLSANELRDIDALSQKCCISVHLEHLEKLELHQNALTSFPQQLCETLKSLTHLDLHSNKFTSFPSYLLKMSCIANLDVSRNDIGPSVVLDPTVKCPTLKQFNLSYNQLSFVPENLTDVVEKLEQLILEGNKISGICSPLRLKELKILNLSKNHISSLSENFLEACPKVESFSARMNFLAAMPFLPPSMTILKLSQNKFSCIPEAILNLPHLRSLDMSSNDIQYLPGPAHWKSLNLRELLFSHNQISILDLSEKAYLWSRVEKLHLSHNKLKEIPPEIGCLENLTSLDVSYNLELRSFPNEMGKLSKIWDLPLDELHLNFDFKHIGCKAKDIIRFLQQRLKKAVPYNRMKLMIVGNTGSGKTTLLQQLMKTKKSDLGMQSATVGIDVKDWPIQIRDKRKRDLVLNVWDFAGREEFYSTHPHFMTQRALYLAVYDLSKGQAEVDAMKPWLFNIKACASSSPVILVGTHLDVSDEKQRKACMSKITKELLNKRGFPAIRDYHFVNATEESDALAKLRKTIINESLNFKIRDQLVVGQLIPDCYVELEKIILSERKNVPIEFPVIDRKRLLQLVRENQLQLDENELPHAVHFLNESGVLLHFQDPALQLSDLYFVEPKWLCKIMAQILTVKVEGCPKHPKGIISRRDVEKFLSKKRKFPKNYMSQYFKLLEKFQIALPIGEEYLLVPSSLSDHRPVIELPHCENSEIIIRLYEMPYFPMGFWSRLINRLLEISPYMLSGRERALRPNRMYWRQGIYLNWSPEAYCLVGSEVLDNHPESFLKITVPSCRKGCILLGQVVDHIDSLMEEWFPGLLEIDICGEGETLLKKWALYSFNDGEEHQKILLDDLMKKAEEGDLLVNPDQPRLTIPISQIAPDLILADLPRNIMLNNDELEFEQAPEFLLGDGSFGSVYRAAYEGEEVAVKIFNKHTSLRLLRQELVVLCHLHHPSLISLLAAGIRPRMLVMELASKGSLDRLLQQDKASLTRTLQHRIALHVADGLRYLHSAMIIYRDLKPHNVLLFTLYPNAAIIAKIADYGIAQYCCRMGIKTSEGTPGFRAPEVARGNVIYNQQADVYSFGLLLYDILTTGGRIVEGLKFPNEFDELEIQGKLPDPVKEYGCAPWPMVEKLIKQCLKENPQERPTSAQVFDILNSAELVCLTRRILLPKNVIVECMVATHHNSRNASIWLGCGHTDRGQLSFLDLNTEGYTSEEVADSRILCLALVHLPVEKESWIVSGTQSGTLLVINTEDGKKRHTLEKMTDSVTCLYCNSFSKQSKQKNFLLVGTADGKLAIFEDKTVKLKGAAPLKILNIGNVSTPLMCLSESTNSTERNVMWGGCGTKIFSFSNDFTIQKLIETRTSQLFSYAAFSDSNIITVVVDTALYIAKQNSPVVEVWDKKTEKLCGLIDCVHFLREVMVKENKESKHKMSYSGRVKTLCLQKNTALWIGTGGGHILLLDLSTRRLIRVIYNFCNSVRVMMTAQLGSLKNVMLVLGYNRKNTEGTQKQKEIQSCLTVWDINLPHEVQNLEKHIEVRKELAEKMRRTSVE
T3 sequence (P28482 whole entry): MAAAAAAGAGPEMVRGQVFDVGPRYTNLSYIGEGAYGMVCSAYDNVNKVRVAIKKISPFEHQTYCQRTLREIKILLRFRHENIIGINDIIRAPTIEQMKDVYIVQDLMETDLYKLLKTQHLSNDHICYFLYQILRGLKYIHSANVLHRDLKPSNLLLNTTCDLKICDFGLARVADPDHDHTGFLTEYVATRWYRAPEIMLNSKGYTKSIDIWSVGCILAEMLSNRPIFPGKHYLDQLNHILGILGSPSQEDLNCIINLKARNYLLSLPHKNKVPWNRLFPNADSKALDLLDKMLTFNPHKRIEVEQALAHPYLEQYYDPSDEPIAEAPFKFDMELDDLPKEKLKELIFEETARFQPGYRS

SMILES | remaining activity at 10 µM (382 unique human kinases [1]) | remaining activity at 10 µM (382 unique human kinases [2]) | remaining activity at 10 µM (382 unique human kinases [3]) | remaining activity at 10 µM (382 unique human kinases [4]) | remaining activity at 10 µM (382 unique human kinases [5]) | remaining activity at 10 µM (382 unique human kinases [6]) | remaining activity at 10 µM (382 unique human kinases [7]) | remaining activity at 10 µM (382 unique human kinases [8]) | % Enzyme Activity (relative to DMSO controls) (382 unique human kinases [1]) | % Enzyme Activity (relative to DMSO controls) (382 unique human kinases [2]) | % Enzyme Activity (relative to DMSO controls) (382 unique human kinases [3]) | % Enzyme Activity (relative to DMSO controls) (382 unique human kinases [4]) | % Enzyme Activity (relative to DMSO controls) (382 unique human kinases [5]) | % Enzyme Activity (relative to DMSO controls) (382 unique human kinases [6]) | % Enzyme Activity (relative to DMSO controls) (382 unique human kinases [7]) | % Enzyme Activity (relative to DMSO controls) (382 unique human kinases [8])
CC(C)c1cc(-c2n[nH]c(=O)n2-c2ccc3c(ccn3C)c2)c(O)cc1O [Ganetespib (STA9090)] | 74.7% | 66.7% |  |  |  |  |  |  |  |  |  |  |  |  |  | 
CC(C)c1cc(-c2n[nH]c(=O)n2-c2ccc3c(ccn3C)c2)c(O)cc1O [Ganetespib] |  |  | 106% | 33.8% | 50.7% | 99.3% | 102% | 103% |  |  |  |  |  |  |  | 
CCNC(=O)c1noc(-c2cc(C(C)C)c(O)cc2O)c1-c1ccc(CN2CCOCC2)cc1 [Luminespib (AUY-922)] | 106% | 108% |  |  |  |  |  |  | 105.20% | 105.69% |  |  |  |  |  | 
CCNC(=O)c1noc(-c2cc(C(C)C)c(O)cc2O)c1-c1ccc(CN2CCOCC2)cc1 [Luminespib] |  |  | 94.6% | 91.6% | 88.8% | 103% | 107% | 94.7% |  |  | 93.52% | 89.59% | 88.51% | 101.32% | 106.19% | 93.54%
